Read-outs that look alike come from different tables or passages of the source.
Key:
[1] = molecular target: Serotonin 5-HT2B (Homo sapiens, UniProt P41595); assay: PDSP binding screen
[2] = molecular target: human D3 receptors (Homo sapiens, UniProt P35462); assay: β-arrestin recruitment assay (antagonist mode, competition with dopamine); type: cell-based; set-up: expressed in transfected cells; conditions: for Emax: percentage of the maximum inhibition of dopamine at EC80 concentration, read-out: Imax (% Control); for IC50: potency for D3 receptors, CHO-K1 cells, vs 30 nM (EC80) dopamine, mean ± SD, three experiments, read-out: IC50
Method: Two different assays were used to evaluate the properties of the analogs described above. The receptor binding affinity was measured by radioligand binding assays using [^125I]IABN with D2 or D3 receptors highly expressed HEK293 cells. The functional activity of the analogs was determined using a β-arrestin recruitment assay. The assay was initially conducted in agonist binding mode to confirm that they function as antagonists at the D3 receptor. Once this efficacy was confirmed, the assay was conducted in antagonist mode to determine the ability of the antagonist to compete with dopamine at the D3 receptor. The results of the antagonist mode assay are reported as IC50 values.
CHO-K1 cells which were overexpressed human D3 receptors were cultured in assaycomplete^TM cell culture kit 107. Cells were seeded at a density of 25,000 cells per well of 96-well plate, and incubated at 5% CO2, 37 °C. Two days later, test compounds were dissolved in DMSO, and diluted with 11-point series in phosphate-buffered saline (PBS). Prepared compounds were added to the cells, and it was incubated for 30 min at 5% CO2, 37 °C. Then, cells were treated with 30 nM (EC80) of dopamine, and the plate was incubated another 90 min. PathHunter^TM detection reagent was added to each well, and then plate was incubated for 80 min at RT in the dark. The chemiluminescent signal was measured by PerkinElmer Enspire plate reader (PerkinElmer, Boston, MA). Data were analyzed by Prism followed by non-linear regression.

[3] = molecular target: Norepinephrine transporter (NET) (Homo sapiens, UniProt P23975); assay: PDSP binding screen; conditions: for inhibition at 10 µM: read-out: Ki (nM) or % inhibition at 10 µM: Norepinephrine transporter (NET)
[4] = molecular target: T1, Serotonin 5-HT2C (Homo sapiens, UniProt P28335); assay: PDSP binding screen
T1 sequence (P28335 33-458): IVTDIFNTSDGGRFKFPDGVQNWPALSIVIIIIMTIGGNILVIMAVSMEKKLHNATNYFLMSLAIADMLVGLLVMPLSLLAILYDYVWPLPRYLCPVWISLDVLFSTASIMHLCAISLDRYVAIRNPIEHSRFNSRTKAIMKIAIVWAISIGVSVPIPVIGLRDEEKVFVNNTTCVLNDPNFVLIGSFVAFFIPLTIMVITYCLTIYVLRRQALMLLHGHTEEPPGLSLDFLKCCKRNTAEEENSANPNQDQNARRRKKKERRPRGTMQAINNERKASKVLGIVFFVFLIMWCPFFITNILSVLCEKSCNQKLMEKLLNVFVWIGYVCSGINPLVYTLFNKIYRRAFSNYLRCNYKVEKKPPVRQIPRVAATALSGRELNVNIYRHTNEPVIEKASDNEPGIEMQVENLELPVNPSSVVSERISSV

[5] = molecular target: Serotonin 5-HT1D (Homo sapiens, UniProt P28221); assay: PDSP binding screen
[6] = molecular target: T2, Serotonin 5-HT1A (Homo sapiens, UniProt P08908); assay: PDSP binding screen
T2 sequence (P08908 1-422): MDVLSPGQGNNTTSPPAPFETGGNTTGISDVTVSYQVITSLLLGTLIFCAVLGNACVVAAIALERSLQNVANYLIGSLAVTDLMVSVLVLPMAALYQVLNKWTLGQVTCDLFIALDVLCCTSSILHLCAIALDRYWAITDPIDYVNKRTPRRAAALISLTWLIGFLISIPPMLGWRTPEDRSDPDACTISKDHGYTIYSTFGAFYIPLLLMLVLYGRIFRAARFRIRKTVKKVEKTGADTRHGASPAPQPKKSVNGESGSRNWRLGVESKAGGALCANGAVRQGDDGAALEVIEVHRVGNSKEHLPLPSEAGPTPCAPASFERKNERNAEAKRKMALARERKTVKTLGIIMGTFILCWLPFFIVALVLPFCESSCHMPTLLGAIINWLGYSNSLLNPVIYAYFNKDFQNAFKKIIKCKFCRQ

[7] = molecular target: Serotonin 5-HT7A (Homo sapiens, UniProt P34969); assay: PDSP binding screen; conditions: for inhibition at 10 µM: read-out: Ki (nM) or % inhibition at 10 µM: 5-HT7A
[8] = molecular target: BZP Rat Brain Site; assay: PDSP binding screen; conditions: HCl salts
[9] = molecular target: T3, Opioid DOR (Homo sapiens, UniProt P41143); assay: PDSP binding screen; conditions: read-out: Ki (nM) or % inhibition at 10 µM: DOR
T3 construct: Psychoactive Drug Screening Program (PDSP)
Source text: (§1) Based on the results in the dopamine receptor radioligand binding assays, nine flexible-based compounds were selected for further evaluation for off-target binding with other GPCRs through the Psychoactive Drug Screening Program (PDSP) (Supplemental Table S2). […] For example, many of the N-aryl piperazine-based analogs that our group developed in the past for either the D2 or D3 receptor had high affinity for the 5-HT1A receptor [55, 56, 57, 58]. […] This mitochondrial-based protein is typically used as a target for imaging neuroinflammation. The results of the PDSP-binding assays also confirmed the data obtained in our lab for the binding of this panel of nine compounds to D2 and D3 receptors (Supplemental Table S2).

[10] = molecular target: T4, Serotonin 5-HT5A (Homo sapiens, UniProt P47898); assay: PDSP binding screen; conditions: read-out: Ki (nM) or % inhibition at 10 µM: 5-HT5A
T4 construct: Psychoactive Drug Screening Program (PDSP)
Source text: as §1

[11] = molecular target: T5, Serotonin transporter (SERT) (Homo sapiens, UniProt P31645); assay: PDSP binding screen; conditions: for Ki: PDSP, HCl salts; for inhibition at 10 µM: read-out: Ki (nM) or % inhibition at 10 µM: Serotonin transporter (SERT)
T5 construct: Psychoactive Drug Screening Program (PDSP)
Source text: as §1

[12] = molecular target: T6, Serotonin 5-HT1E (Homo sapiens, UniProt P28566); assay: PDSP binding screen; conditions: read-out: Ki (nM) or % inhibition at 10 µM: 5-HT1E; PDSP; HCl salts
T6 construct: Psychoactive Drug Screening Program (PDSP)
Source text: as §1

[13] = molecular target: Opioid MOR (Homo sapiens, UniProt P35372); assay: PDSP binding screen; conditions: for inhibition at 10 µM: read-out: Ki (nM) or % inhibition at 10 µM: MOR
Opioid MOR, sequence (P35372 whole entry): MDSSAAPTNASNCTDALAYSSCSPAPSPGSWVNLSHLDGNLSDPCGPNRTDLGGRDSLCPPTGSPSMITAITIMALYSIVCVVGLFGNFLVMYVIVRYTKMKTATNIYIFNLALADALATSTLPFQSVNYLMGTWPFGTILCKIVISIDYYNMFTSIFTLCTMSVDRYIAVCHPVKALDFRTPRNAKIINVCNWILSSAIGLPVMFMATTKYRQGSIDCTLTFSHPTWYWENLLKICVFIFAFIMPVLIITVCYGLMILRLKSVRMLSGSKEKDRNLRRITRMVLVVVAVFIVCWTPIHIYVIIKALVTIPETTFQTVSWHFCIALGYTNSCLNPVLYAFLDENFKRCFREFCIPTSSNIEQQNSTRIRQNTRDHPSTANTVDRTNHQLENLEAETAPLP

human D3 receptors, sequence (P35462 whole entry): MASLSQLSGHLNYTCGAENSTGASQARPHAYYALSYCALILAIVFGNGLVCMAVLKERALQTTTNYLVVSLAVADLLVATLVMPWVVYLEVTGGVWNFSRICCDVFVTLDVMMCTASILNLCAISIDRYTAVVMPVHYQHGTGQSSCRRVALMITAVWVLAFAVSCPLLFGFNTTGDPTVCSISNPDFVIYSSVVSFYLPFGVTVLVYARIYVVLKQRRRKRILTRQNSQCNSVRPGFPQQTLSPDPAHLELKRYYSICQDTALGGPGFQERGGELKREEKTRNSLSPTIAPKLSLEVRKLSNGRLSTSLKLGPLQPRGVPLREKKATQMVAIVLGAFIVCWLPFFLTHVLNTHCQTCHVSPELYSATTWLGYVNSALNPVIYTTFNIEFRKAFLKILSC
Serotonin 5-HT1D, sequence (P28221 whole entry): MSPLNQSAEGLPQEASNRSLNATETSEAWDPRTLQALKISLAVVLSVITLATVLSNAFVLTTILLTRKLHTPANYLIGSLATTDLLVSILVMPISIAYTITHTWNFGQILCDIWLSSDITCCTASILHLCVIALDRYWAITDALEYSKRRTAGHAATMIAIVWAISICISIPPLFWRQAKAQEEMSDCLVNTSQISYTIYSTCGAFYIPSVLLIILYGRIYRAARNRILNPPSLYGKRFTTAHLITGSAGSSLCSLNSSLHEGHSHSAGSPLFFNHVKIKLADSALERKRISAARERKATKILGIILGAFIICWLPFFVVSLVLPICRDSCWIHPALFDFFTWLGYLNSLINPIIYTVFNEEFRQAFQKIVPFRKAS
T6 sequence (P28566 whole entry): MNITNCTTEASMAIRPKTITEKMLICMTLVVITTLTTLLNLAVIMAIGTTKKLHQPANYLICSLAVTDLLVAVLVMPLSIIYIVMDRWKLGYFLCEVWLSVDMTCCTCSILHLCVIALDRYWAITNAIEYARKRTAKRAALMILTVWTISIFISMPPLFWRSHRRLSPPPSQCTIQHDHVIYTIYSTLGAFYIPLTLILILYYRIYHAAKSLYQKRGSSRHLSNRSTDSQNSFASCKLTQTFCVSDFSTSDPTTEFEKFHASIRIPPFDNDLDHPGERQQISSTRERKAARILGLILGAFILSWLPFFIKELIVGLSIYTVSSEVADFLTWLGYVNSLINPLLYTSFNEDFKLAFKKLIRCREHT
T5 sequence (P31645 whole entry, species assumed): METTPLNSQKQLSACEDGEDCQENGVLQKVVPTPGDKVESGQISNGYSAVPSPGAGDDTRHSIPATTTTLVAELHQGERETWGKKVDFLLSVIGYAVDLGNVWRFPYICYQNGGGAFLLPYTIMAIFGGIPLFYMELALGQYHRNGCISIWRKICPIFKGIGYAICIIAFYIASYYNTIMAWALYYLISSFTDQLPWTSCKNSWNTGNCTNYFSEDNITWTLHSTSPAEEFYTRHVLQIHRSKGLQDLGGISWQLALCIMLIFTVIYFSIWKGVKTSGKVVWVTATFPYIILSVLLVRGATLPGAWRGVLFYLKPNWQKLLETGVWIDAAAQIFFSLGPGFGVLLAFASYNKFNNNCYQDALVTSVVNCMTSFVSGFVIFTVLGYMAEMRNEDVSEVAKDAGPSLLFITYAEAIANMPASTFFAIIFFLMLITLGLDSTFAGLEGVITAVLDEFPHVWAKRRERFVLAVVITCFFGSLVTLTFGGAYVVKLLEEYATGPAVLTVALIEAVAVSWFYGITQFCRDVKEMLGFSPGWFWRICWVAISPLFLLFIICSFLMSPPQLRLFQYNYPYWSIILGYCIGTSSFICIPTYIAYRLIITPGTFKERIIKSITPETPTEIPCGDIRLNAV
Serotonin 5-HT2B, sequence (P41595 whole entry): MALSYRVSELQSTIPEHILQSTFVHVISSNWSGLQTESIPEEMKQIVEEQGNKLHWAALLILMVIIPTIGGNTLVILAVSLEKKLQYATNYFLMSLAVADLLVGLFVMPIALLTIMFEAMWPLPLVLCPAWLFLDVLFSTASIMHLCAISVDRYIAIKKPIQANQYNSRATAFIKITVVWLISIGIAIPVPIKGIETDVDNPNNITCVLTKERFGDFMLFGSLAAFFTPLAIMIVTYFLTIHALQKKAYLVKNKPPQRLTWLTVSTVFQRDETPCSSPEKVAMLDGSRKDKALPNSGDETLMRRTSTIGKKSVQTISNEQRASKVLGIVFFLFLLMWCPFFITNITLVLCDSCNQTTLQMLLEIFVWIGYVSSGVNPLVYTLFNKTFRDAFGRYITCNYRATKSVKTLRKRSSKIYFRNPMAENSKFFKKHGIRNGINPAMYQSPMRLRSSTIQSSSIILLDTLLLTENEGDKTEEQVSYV
Norepinephrine transporter (NET), sequence (P23975 whole entry): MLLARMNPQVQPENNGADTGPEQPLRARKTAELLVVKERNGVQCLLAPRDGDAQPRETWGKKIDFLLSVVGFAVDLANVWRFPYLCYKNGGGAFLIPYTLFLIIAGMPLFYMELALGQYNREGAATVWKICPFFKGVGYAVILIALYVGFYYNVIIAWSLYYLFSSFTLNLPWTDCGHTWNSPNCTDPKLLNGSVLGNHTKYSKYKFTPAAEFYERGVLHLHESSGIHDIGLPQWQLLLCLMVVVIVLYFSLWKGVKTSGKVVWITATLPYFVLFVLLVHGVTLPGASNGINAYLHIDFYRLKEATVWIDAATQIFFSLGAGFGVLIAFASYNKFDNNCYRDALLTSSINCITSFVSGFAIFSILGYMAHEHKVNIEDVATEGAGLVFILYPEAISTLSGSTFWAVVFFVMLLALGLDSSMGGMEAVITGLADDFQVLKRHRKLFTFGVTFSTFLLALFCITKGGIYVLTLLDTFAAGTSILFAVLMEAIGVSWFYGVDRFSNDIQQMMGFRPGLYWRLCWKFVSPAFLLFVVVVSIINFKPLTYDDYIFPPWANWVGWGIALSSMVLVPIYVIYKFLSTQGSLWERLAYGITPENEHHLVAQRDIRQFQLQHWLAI
T3 sequence (P41143 whole entry): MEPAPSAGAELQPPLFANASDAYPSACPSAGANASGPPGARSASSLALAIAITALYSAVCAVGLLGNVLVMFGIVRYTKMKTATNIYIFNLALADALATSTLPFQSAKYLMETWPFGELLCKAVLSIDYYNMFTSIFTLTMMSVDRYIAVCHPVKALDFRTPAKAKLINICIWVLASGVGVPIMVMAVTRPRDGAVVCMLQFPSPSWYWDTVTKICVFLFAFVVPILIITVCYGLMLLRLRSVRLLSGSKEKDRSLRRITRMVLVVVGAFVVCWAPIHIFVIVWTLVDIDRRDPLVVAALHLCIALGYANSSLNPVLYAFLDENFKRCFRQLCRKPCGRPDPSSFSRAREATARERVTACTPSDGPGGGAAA
Serotonin 5-HT7A, sequence (P34969 1-445 isoform P34969-2): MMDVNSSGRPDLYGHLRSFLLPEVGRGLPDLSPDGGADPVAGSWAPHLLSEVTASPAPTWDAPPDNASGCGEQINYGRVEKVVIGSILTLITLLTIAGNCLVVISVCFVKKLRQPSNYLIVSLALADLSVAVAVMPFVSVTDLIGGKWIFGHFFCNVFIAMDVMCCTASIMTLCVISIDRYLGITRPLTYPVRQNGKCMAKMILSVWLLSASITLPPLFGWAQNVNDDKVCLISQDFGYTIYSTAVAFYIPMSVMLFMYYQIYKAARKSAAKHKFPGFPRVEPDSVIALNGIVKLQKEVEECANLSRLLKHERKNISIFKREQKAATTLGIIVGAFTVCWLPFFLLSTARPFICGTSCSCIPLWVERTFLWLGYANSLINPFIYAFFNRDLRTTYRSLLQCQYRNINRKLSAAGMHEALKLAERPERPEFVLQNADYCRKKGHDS
T4 sequence (P47898 whole entry): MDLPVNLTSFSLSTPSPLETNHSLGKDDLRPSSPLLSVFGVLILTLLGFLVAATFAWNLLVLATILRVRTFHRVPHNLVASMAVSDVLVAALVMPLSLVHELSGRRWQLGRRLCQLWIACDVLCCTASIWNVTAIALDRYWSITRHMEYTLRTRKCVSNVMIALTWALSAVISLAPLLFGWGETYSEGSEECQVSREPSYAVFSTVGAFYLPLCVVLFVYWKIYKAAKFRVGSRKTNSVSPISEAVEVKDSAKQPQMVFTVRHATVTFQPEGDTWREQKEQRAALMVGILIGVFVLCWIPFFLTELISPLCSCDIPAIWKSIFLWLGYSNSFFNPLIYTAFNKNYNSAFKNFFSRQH

CCN(CCCNC(=O)c1ccc2ccccc2c1)CCNC(=O)c1cc(Br)cc(OC)c1OC [21a, N-(3-((2-(5-Bromo-2,3-dimethoxybenzamido)ethyl)(ethyl)amino)propyl)-2-naphthamide]
Ki [1]: 118 nM
Emax [2]: 66.1 ± 17.6%
IC50 [2]: 16.4 ± 7.7 nM
Ki [3]: 391 nM
Ki [4]: 1330 nM
Ki [5]: 1200 nM
Ki [6]: 971 nM
inhibition at 10 µM [7]: < 50%
Ki (nM) or % inhibition at 10 µM: BZP Rat Brain Site [8]: N/A (N/A; not active means less than 50% inhibition that was obtained in primary binding assay at 10 µM of the compound)
inhibition at 10 µM [9]: < 50%
inhibition at 10 µM ([10]; PDSP, HCl salts): < 50%
Ki [11]: 3010 nM
inhibition at 10 µM [12]: < 50%
Ki [13]: 1080 nM

CCN(CCCNC(=O)c1ccc(-c2ccsc2)cc1)CCNC(=O)c1cc(Br)cc(OC)c1OC [21g, 5-Bromo-N-(2-(ethyl(3-(4-(thiophen-3-yl)benzamido)propyl)amino)ethyl)-2,3-dimethoxybenzamide]
Ki [1]: 189 nM
Emax [2]: 50.1 ± 20.9%
IC50 [2]: 36.8 ± 35.7 nM
Ki [3]: 1940 nM
Ki [4]: 354 nM
Ki [5]: 1820 nM
Ki [6]: 3310 nM
Ki [7]: 2250 nM
Ki (nM) or % inhibition at 10 µM: BZP Rat Brain Site [8]: N/A (N/A; not active means less than 50% inhibition that was obtained in primary binding assay at 10 µM of the compound)
inhibition at 10 µM [9]: < 50%
inhibition at 10 µM ([10]; PDSP, HCl salts): < 50%
inhibition at 10 µM [11]: < 50%
inhibition at 10 µM [12]: < 50%
Ki [13]: 2160 nM

CCN(CCCNC(=O)c1cn2ccccc2n1)CCNC(=O)c1cc(Br)cc(OC)c1OC [21e, N-(3-((2-(5-Bromo-2,3-dimethoxybenzamido)ethyl)(ethyl)amino)propyl)imidazo[1,2-a]pyridine-2-carboxamide]
Ki [1]: 443 nM
Emax [2]: 85.4 ± 6%
IC50 [2]: 4.3 ± 2.5 nM
inhibition at 10 µM [3]: < 50%
Ki [4]: 5780 nM
inhibition at 10 µM ([5]; read-out: Ki (nM) or % inhibition at 10 µM: 5-HT1D): < 50%
Ki [6]: 575 nM
inhibition at 10 µM [7]: < 50%
Ki (nM) or % inhibition at 10 µM: BZP Rat Brain Site [8]: N/A (N/A; not active means less than 50% inhibition that was obtained in primary binding assay at 10 µM of the compound)
inhibition at 10 µM [9]: < 50%
inhibition at 10 µM ([10]; PDSP, HCl salts): < 50%
inhibition at 10 µM [11]: < 50%
inhibition at 10 µM [12]: < 50%
inhibition at 10 µM [13]: < 50%

CCN(CCCNC(=O)c1cc2ccccc2n1C)CCNC(=O)c1cc(Br)cc(OC)c1OC [21j, N-(3-((2-(5-Bromo-2,3-dimethoxybenzamido)ethyl)(ethyl)amino)propyl)-1-methyl-1H-indole-2-carboxamide]
Ki [1]: 183 nM
Emax [2]: 81.5 ± 10.1%
IC50 [2]: 4.8 ± 0.8 nM
Ki [3]: 1100 nM
Ki [4]: 5060 nM
Ki [5]: 1930 nM
Ki [6]: 961 nM
inhibition at 10 µM [7]: < 50%
Ki (nM) or % inhibition at 10 µM: BZP Rat Brain Site [8]: N/A (N/A; not active means less than 50% inhibition that was obtained in primary binding assay at 10 µM of the compound)
inhibition at 10 µM [9]: < 50%
inhibition at 10 µM [10]: < 50%
Ki [11]: 415 nM
inhibition at 10 µM [12]: < 50%
Ki [13]: 2770 nM

CCN(CCCNC(=O)c1ccsc1)CCNC(=O)c1cc(Br)cc(OC)c1OC [21i, N-(3-((2-(5-Bromo-2,3-dimethoxybenzamido)ethyl)(ethyl)amino)propyl)thiophen-e-3-carboxamide]
Ki [1]: 269 nM
Emax [2]: 99.6 ± 20.7%
IC50 [2]: 2.7 ± 0.2 nM
Ki [3]: 3200 nM
Ki [4]: 9730 nM
Ki [5]: 3140 nM
Ki [6]: 245 nM
inhibition at 10 µM [7]: < 50%
Ki (nM) or % inhibition at 10 µM: BZP Rat Brain Site [8]: N/A (N/A; not active means less than 50% inhibition that was obtained in primary binding assay at 10 µM of the compound)
inhibition at 10 µM ([9]; PDSP, HCl salts): < 50%
inhibition at 10 µM ([10]; PDSP, HCl salts): < 50%
inhibition at 10 µM [11]: < 50%
inhibition at 10 µM [12]: < 50%
inhibition at 10 µM [13]: < 50%

CCN(CCCNC(=O)c1ccc(-c2ccncc2)cc1)CCNC(=O)c1cc(Br)cc(OC)c1OC [21c, 5-Bromo-N-(2-(ethyl(3-(4-(pyridin-4-yl)benzamido)propyl)amino)ethyl)-2,3-dimethoxybenzamide]
Ki [1]: 157 nM
Emax [2]: 78.2 ± 18%
IC50 [2]: 1.3 ± 1 nM
inhibition at 10 µM [3]: < 50%
Ki [4]: 1500 nM
Ki [5]: 1150 nM
Ki [6]: 509 nM
inhibition at 10 µM [7]: < 50%
Ki (nM) or % inhibition at 10 µM: BZP Rat Brain Site [8]: N/A (N/A; not active means less than 50% inhibition that was obtained in primary binding assay at 10 µM of the compound)
inhibition at 10 µM ([9]; PDSP, HCl salts): < 50%
inhibition at 10 µM ([10]; PDSP, HCl salts): < 50%
inhibition at 10 µM [11]: < 50%
inhibition at 10 µM [12]: < 50%
inhibition at 10 µM [13]: < 50%

CCN(CCCNC(=O)c1cc2ccccc2[nH]1)CCNC(=O)c1cc(Br)cc(OC)c1OC [21d, N-(3-((2-(5-Bromo-2,3-dimethoxybenzamido)ethyl)(ethyl)amino)propyl)-1H-indole-2-carboxamide]
Ki [1]: 181 nM
Emax [2]: 57.7 ± 26.9%
IC50 [2]: 9.3 ± 12 nM
Ki [3]: 842 nM
Ki [4]: 2100 nM
Ki [5]: 1660 nM
Ki [6]: 692 nM
inhibition at 10 µM [7]: < 50%
Ki (nM) or % inhibition at 10 µM: BZP Rat Brain Site [8]: N/A (N/A; not active means less than 50% inhibition that was obtained in primary binding assay at 10 µM of the compound)
inhibition at 10 µM [9]: < 50%
inhibition at 10 µM ([10]; PDSP, HCl salts): < 50%
inhibition at 10 µM [11]: < 50%
inhibition at 10 µM [12]: < 50%
Ki [13]: 2410 nM
